Results published in ChEMBL document CHEMBL1137286, “Vialinin B, a novel potent inhibitor of TNF-alpha production, isolated from an edible mushroom, Thelephora vialis” (Bioorg Med Chem Lett, 2006).
pIC50: −log10 of the molar value.

Tested on: RBL-2H3
Experiment: Inhibition of DNP7-BSA antigen-induced TNFalpha release in rat RBL-2H3 cells
Format: functional, cell-based

Row | SMILES | pIC50
1 | Oc1ccc(-c2c(O)c(O)c3c(oc4cc(O)c(O)cc43)c2O)cc1 [CYCLOLEUCOMELONE] | 5.46
2 | O=C(Cc1ccccc1)Oc1c(-c2ccc(O)cc2)c(OC(=O)Cc2ccccc2)c2oc3cc(O)c(O)cc3c2c1OC(=O)Cc1ccccc1 [GANBAJUNIN B] | 5.30
3 | C=CC[C@@H]1/C=C(\C)C[C@H](C)C[C@H](OC)[C@H]2O[C@@](O)(C(=O)C(=O)N3CCCC[C@H]3C(=O)O[C@H](/C(C)=C/[C@@H]3CC[C@@H](O)[C@H](OC)C3)[C@H](C)[C@@H](O)CC1=O)[C@H](C)C[C@@H]2OC [TACROLIMUS ANHYDROUS] | 9.60
4 | O=C(Cc1ccccc1)Oc1c(-c2ccc(O)cc2)c(O)c2oc3cc(O)c(O)cc3c2c1OC(=O)Cc1ccccc1 [VIALININ B] | 10.70
